Measured values taken from patent US8192962B2, “Processes for detecting toxic substances” (Daikin Industries, Ltd., priority 2001, dated 2012).

Tested on: DNA repair protein genes
Assay: DNA chip mRNA expression in yeast, DNA repair protein genes (Table 3)
Assay type: cell-based, Saccharomyces cerevisiae S288C
Conditions: incubated two hours, concentrations as in the 1st table
Protocol: Yeast (Saccharomyces cerevisiae S288C (α SUC2mal mel gap2 CUP1)) were incubated at 25° C. on YPD medium (yeast extract 1%, polypepton 2%, glucose 2%). One of toxic chemical substances was added to the cells at logarithmic growth phase, and the cells were further incubated for two hours. Cells were cultured without any chemical substance in the same condition, and were used as control. Concentrations of the chemical substances were defined to inhibit the growth of the yeast but not lead to death.
After completion of the incubation, the culture was centrifuged to collect the cells. To the cells, sodium acetate buffer (50 mM sodium acetate, 10 mM EDTA, 1% SDS) was added, and the mixture was shaken at 65° C. for five minutes, followed by returning to room temperature, and obtaining the supernatant, of which the procedures were repeated two times. To the supernatant, ½ amount of a solution of phenol/chloroform was added, and the mixture was centrifuged to give a supernatant, which was added with an equal amount of chloroform, and the mixture was centrifuged to give a supernatant. To the supernatant, an equal amount of isopropanol containing 0.3 M sodium acetate was added, and the mixture was allowed to stand at room temperature for 30 minutes, after which the mixture was centrifuged to give a sediment of the whole RNAs. Seventy % ethanol was added to the sediment, and the mixture was again centrifuged to give a sediment, which was then dried and dissolved in water. mRNA was isolated from the whole RNAs as followings. In view of the fact that a poly A chain is attached to the 3′ terminus of mRNA, a polynucleotide having a poly T structure which was immobilized on the surface of latex beads was used to trap the mRNA, and then the mRNA was washed and eluted with spine column (Oligotex-dT30<Super>mRNA Purification Kit, Takara). Reverse transcription of the mRNA was conducted with a reverse transcriptase (Super Script II Reverse Transcriptase; catalogue No. 18064-014, GibcoBRL) using fluorescence-labeled nucleotides to give cDNAs that were introduced with Cy3-dUTP or Cy5-dUTP during the reverse transcription.
The labeled cDNAs were dissolved in TE buffer (10mM Tris-HCl/1 mM EDTA, pH8.0), and the solution was dropped on the DNA chip containing the whole genes of yeast (DNA Chip Research Inc. Japan) so that the cDNAs were hybridized on the DNA chip at 65° C. for over 12 hours. The fluoresces intensity of the DNA chip was read with a scanner, and the ratio relative to the fluorescence intensity resulting from the absence of chemical substance was estimated as the following, which is shown in Tables 1 to 9: […]

COc1cc(CNC(=O)CCCCC=CC(C)C)ccc1O [(12), 8-methyl-N-vanillyl-6-nonenamide]
The level of expressed mRNA in the presence of chemical substance/The level of expressed mRNA in the absence of chemical substance (yeast gene YAL015C): 1.0
The level of expressed mRNA in the presence of chemical substance/The level of expressed mRNA in the absence of chemical substance (yeast gene YAR007C): 0.9
The level of expressed mRNA in the presence of chemical substance/The level of expressed mRNA in the absence of chemical substance (yeast gene YBL019W): 0.8
The level of expressed mRNA in the presence of chemical substance/The level of expressed mRNA in the absence of chemical substance (yeast gene YBR073W): 0.9
The level of expressed mRNA in the presence of chemical substance/The level of expressed mRNA in the absence of chemical substance (yeast gene YBR272C): 0.5
The level of expressed mRNA in the presence of chemical substance/The level of expressed mRNA in the absence of chemical substance (yeast gene YCR014C): 0.7
The level of expressed mRNA in the presence of chemical substance/The level of expressed mRNA in the absence of chemical substance (yeast gene YDL017W): 0.8
The level of expressed mRNA in the presence of chemical substance/The level of expressed mRNA in the absence of chemical substance (yeast gene YDL059C): 1.3
The level of expressed mRNA in the presence of chemical substance/The level of expressed mRNA in the absence of chemical substance (yeast gene YDL200C): 1.1
The level of expressed mRNA in the presence of chemical substance/The level of expressed mRNA in the absence of chemical substance (yeast gene YDR054C): 1.0
The level of expressed mRNA in the presence of chemical substance/The level of expressed mRNA in the absence of chemical substance (yeast gene YDR369C): 0.9
The level of expressed mRNA in the presence of chemical substance/The level of expressed mRNA in the absence of chemical substance (yeast gene YEL019C): 1.0
The level of expressed mRNA in the presence of chemical substance/The level of expressed mRNA in the absence of chemical substance (yeast gene YEL037C): 1.1
The level of expressed mRNA in the presence of chemical substance/The level of expressed mRNA in the absence of chemical substance (yeast gene YER162C): 0.4
The level of expressed mRNA in the presence of chemical substance/The level of expressed mRNA in the absence of chemical substance (yeast gene YFL014W): 4.3
The level of expressed mRNA in the presence of chemical substance/The level of expressed mRNA in the absence of chemical substance (yeast gene YGL058W): 1.3
The level of expressed mRNA in the presence of chemical substance/The level of expressed mRNA in the absence of chemical substance (yeast gene YGL091C): 1.2
The level of expressed mRNA in the presence of chemical substance/The level of expressed mRNA in the absence of chemical substance (yeast gene YGL127C): 1.4
The level of expressed mRNA in the presence of chemical substance/The level of expressed mRNA in the absence of chemical substance (yeast gene YGL163C): 0.9
The level of expressed mRNA in the presence of chemical substance/The level of expressed mRNA in the absence of chemical substance (yeast gene YGL249W): 0.8
The level of expressed mRNA in the presence of chemical substance/The level of expressed mRNA in the absence of chemical substance (yeast gene YGR180C): 0.9
The level of expressed mRNA in the presence of chemical substance/The level of expressed mRNA in the absence of chemical substance (yeast gene YGR231C): 1.3
The level of expressed mRNA in the presence of chemical substance/The level of expressed mRNA in the absence of chemical substance (yeast gene YGR258C): 0.9
The level of expressed mRNA in the presence of chemical substance/The level of expressed mRNA in the absence of chemical substance (yeast gene YHR164C): 1.2
The level of expressed mRNA in the presence of chemical substance/The level of expressed mRNA in the absence of chemical substance (yeast gene YIL036W): 1.2
The level of expressed mRNA in the presence of chemical substance/The level of expressed mRNA in the absence of chemical substance (yeast gene YIL072W): 1.1
The level of expressed mRNA in the presence of chemical substance/The level of expressed mRNA in the absence of chemical substance (yeast gene YIL143C): 0.9
The level of expressed mRNA in the presence of chemical substance/The level of expressed mRNA in the absence of chemical substance (yeast gene YIL153W): 1.0
The level of expressed mRNA in the presence of chemical substance/The level of expressed mRNA in the absence of chemical substance (yeast gene YIR002C): 1.3
The level of expressed mRNA in the presence of chemical substance/The level of expressed mRNA in the absence of chemical substance (yeast gene YJL026W): 1.0
The level of expressed mRNA in the presence of chemical substance/The level of expressed mRNA in the absence of chemical substance (yeast gene YJR046W): 0.9
The level of expressed mRNA in the presence of chemical substance/The level of expressed mRNA in the absence of chemical substance (yeast gene YJR052W): 1.1
The level of expressed mRNA in the presence of chemical substance/The level of expressed mRNA in the absence of chemical substance (yeast gene YKL145W): 1.3
The level of expressed mRNA in the presence of chemical substance/The level of expressed mRNA in the absence of chemical substance (yeast gene YLR103C): 1.6
The level of expressed mRNA in the presence of chemical substance/The level of expressed mRNA in the absence of chemical substance (yeast gene YLR233C): 0.9
The level of expressed mRNA in the presence of chemical substance/The level of expressed mRNA in the absence of chemical substance (yeast gene YLR288C): 0.6
The level of expressed mRNA in the presence of chemical substance/The level of expressed mRNA in the absence of chemical substance (yeast gene YML032C): 0.9
The level of expressed mRNA in the presence of chemical substance/The level of expressed mRNA in the absence of chemical substance (yeast gene YML058W): 0.9
The level of expressed mRNA in the presence of chemical substance/The level of expressed mRNA in the absence of chemical substance (yeast gene YMR035W): 0.5
The level of expressed mRNA in the presence of chemical substance/The level of expressed mRNA in the absence of chemical substance (yeast gene YMR072W): 0.8
The level of expressed mRNA in the presence of chemical substance/The level of expressed mRNA in the absence of chemical substance (yeast gene YMR096W): 1.4
The level of expressed mRNA in the presence of chemical substance/The level of expressed mRNA in the absence of chemical substance (yeast gene YMR284W): 0.6
The level of expressed mRNA in the presence of chemical substance/The level of expressed mRNA in the absence of chemical substance (yeast gene YNL213C): 0.8
The level of expressed mRNA in the presence of chemical substance/The level of expressed mRNA in the absence of chemical substance (yeast gene YNL250W): 1.4
The level of expressed mRNA in the presence of chemical substance/The level of expressed mRNA in the absence of chemical substance (yeast gene YNL261W): 0.8
The level of expressed mRNA in the presence of chemical substance/The level of expressed mRNA in the absence of chemical substance (yeast gene YNL312W): 0.9
The level of expressed mRNA in the presence of chemical substance/The level of expressed mRNA in the absence of chemical substance (yeast gene YOL043C): 0.8
The level of expressed mRNA in the presence of chemical substance/The level of expressed mRNA in the absence of chemical substance (yeast gene YOR005C): 0.9
The level of expressed mRNA in the presence of chemical substance/The level of expressed mRNA in the absence of chemical substance (yeast gene YOR386W): 1.2
The level of expressed mRNA in the presence of chemical substance/The level of expressed mRNA in the absence of chemical substance (yeast gene YPL022W): 0.7
The level of expressed mRNA in the presence of chemical substance/The level of expressed mRNA in the absence of chemical substance (yeast gene YPL164C): 0.9
The level of expressed mRNA in the presence of chemical substance/The level of expressed mRNA in the absence of chemical substance (yeast gene YPL194W): 0.9
The level of expressed mRNA in the presence of chemical substance/The level of expressed mRNA in the absence of chemical substance (yeast gene YPR025C): 0.7
